Assay results published in patent EP4603105A1, “PHARMACEUTICAL COMPOSITION CONTAINING CYCLIC COMPOUND HAVING SELECTIVE KRAS INHIBITORY EFFECT AGAINST HRAS AND NRAS” (CHUGAI SEIYAKU KABUSHIKI KAISHA, priority 2022, dated 2024).

Tests used:
[1] = system: human gastric cancer strain SNU-1; assay type: cell-based
Outline: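 SNU-1 gastric cancer cells, 250 cells/well in RPMI-1640 with 10% FBS, glucose, HEPES and sodium pyruvate, plated onto serially diluted compound in DMSO.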

[2] = system: human lung cancer strain NCI-H441; assay type: cell-based
Outline: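 Readout: […] after the ATP-based reagent. Compound: serial dilutions in dimethyl sulfoxide.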

[3] = system: human pancreatic cancer strain KP4; assay type: cell-based
Outline: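 KP4 pancreatic cancer cells seeded at 500 cells/well in DMEM/Ham's F-12 with 10% FBS onto serially diluted compound. Viability read by CellTiter-Glo luminescence.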

[4] = biological target: GDP-bound KRAS wild-type protein (Homo sapiens, UniProt P01116); test: Binding to KRAS by surface plasmon resonance (SPR), dissociation constant KD
Outline: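 Biotinylated GDP-bound RAS was captured at about 100–300 RU. Running buffer: HBS pH 7.4, 10 mM MgCl2, 10 µM GDP, 1 mM DTT, 0.01% Tween 20, 4% DMSO.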

[5] = biological target: GDP-bound NRAS wild-type protein (Homo sapiens, UniProt P01111); test: Binding to NRAS by surface plasmon resonance (SPR), KD and KD ratio to KRAS; conditions: ratio of KD for GDP-bound NRAS wild-type protein to KD for KRAS
Outline: (§1)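 GDP-bound biotin-Avi RAS captured at ~100–300 RU, 30°C, pH 7.4 HBS containing 10 µM GDP, 10 mM MgCl2, 1 mM DTT, 0.01% Tween 20 and 4% DMSO. KD by 1:1 fitting.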

[6] = system: human ovarian cancer strain OV7; assay type: cell-based
Outline: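 OV7 cells, 250 per well, in DMEM/Ham's F-12 with 5% FBS, 0.5 µg/mL hydrocortisone and 10 µg/mL insulin, grown 7 days at 37°C with serially diluted compound. Viability by CellTiter-Glo luminescence.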

[7] = system: human bladder cancer strain UM-UC-3; assay type: cell-based
Outline: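 UM-UC-3 human bladder cancer cells were seeded at 250 cells/well onto serially diluted compound in MEM with 10% FBS. Viability was read as CellTiter-Glo luminescence.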

[8] = system: human colorectal cancer strain GP2d; assay type: cell-based
Outline: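 Cells seeded at 500 cells/well in DMEM with 10% FBS onto serially diluted compound in DMSO, then cultured 7 days at 37°C, 5% CO2. Viability read by CellTiter-Glo luminescence.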

[9] = system: human gastric cancer strain GSU; assay type: cell-based
Outline: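 Cells seeded at 200 per well in RPMI-1640 with 10% FBS onto serially diluted compound (DMSO) in U-bottom plates. Viability read by CellTiter-Glo luminescence.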

HRAS wild-type protein = HRAS wild-type protein (Homo sapiens, UniProt P01112); test: Binding to HRAS by surface plasmon resonance (SPR), KD and KD ratio to KRAS; conditions: ratio of KD for HRAS wild-type protein to KD for KRAS
Outline: as §1

GDP-bound NRAS wild-type protein, sequence (P01111 whole entry): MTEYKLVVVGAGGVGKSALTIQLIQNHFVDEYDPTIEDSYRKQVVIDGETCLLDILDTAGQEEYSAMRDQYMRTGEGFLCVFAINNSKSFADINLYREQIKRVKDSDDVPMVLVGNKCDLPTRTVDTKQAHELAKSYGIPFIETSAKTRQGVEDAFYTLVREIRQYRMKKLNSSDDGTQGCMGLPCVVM
HRAS wild-type protein, sequence (P01112 whole entry): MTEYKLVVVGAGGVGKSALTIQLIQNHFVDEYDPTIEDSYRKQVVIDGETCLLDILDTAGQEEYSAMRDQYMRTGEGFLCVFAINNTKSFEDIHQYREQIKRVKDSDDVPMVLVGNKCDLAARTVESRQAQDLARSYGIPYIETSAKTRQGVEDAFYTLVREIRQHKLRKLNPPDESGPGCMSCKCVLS
GDP-bound KRAS wild-type protein, sequence (P01116 1-188 isoform P01116-2): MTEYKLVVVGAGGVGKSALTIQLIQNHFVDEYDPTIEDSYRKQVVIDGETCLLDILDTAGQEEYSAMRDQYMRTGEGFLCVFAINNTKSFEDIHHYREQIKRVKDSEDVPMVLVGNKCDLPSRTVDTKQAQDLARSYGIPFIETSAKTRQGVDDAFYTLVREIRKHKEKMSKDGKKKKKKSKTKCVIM

Row | Structure (SMILES) | IC50 [1] [nM] | IC50 [2] [nM] | IC50 [3] [nM] | Kd ([4]; Single Cycle Kinetics) [nM] | NRAS /KRAS [5] | IC50 [6] [nM] | IC50 [7] [nM] | IC50 [8] [nM] | IC50 [9] [nM] | HRAS /KRAS (HRAS wild-type protein) | Kd ([4]; 1:1 binding model) [nM]
1 | CCO[C@@H]1C[C@H]2C(=O)NC3(CCCC3)C(=O)N(C)[C@@H](C3CCCC3)C(=O)N(C)[C@H](C(=O)N(C)C)CC(=O)N(C)[C@@H]([C@@H](C)OC)C(=O)N[C@@H]([C@@H](C)CC)C(=O)N(C)CC(=O)N(C)[C@H]3C/C=C\CCN(C3=O)[C@@H](Cc3ccc(C)cc3)C(=O)N(C)CC(=O)N[C@@H](CCc3cc(F)c(C(F)(F)F)c(F)c3)C(=O)N2C1 [PP3481, (2S,8S,12R,14S,20S,23S,27S,30S,36S,38Z)-20-cyclopentyl-8-[2-[3,5-difluoro-4-(trifluoromethyl)phenyl]ethyl]-12-ethoxy-27-[(1R)-1-methoxyethyl]-N,N,4,19,22,26,32,35-octamethyl-30-[(1S)-1-methylpropyl]-3,6,9,15,18,21,25,28,31,34,42-undecaoxo-2-(p-tolylmethyl)spiro[1,4,7,10,16,19,22,26,29,32,35-undecazatricyclo[34.5.1.0^10,14]dotetracont-38-ene-17,1'-cyclopentane]-23-carboxamide] | 8.2 | 13.6 | 25.5 | 0.12 | A (a compound having 10 or more and less than 20 is denoted as A) | 24.8 | 8.7 | 9.1 | 2.1 | A (a compound having 10 or more and less than 20 is denoted as A) | –
2 | C#CC[C@H]1C(=O)N[C@@H]([C@@H](C)CC)C(=O)N2CCC[C@H]2C(=O)N(C)[C@H]2C/C=C\CCN(C2=O)[C@@H](Cc2ccc(C)cc2)C(=O)N(C)CC(=O)N[C@@H](CCc2ccc(C(F)(F)F)c(OC)c2)C(=O)N2C[C@H](OCC)C[C@H]2C(=O)N(C)C2(CCC2)C(=O)N(C)[C@@H](C2CCCC2)C(=O)N(C)[C@H](C(=O)N(C)C)CC(=O)N1C [PP3255, (1S,4S,10S,13S,17S,20S,26S,28R,32S,38S,42Z)-20-cyclopentyl-28-ethoxy-32-[2-[3-methoxy-4-(trifluoromethyl)phenyl]ethyl]-N,N,2,14,18,21,24,36-octamethyl-10-[(1S)-1-methylpropyl]-3,9,12,15,19,22,25,31,34,37,45-undecaoxo-13-prop-2-ynyl-38-(p-tolylmethyl)spiro[2,8,11,14,18,21,24,30,33,36,39-undecazatetracyclo[37.5.1.0^4,8.0^26,30]pentatetracont-42-ene-23,1'-cyclobutane]-17-carboxamide] | 6.6 | 5.7 | 9.3 | 0.1 | A (a compound having 10 or more and less than 20 is denoted as A) | 7.1 | 3.7 | 3.8 | 1.9 | A (a compound having 10 or more and less than 20 is denoted as A) | –
3 | CCC[C@H]1C(=O)N[C@@H]([C@@H](C)CC)C(=O)N2CCC[C@H]2C(=O)N(C)[C@H]2C/C=C\CCN(C2=O)[C@@H](Cc2ccc(C(F)(F)F)cc2)C(=O)N(C)CC(=O)N[C@@H](CCc2ccc(C(F)(F)F)c(OC)c2)C(=O)N2C[C@H](OCC)C[C@H]2C(=O)OC2(CCC2)C(=O)N(C)[C@@H](C2CCCC2)C(=O)N(C)[C@H](C(=O)N(C)C)CC(=O)N1C [PP3368, (1S,4S,10S,13S,17S,20S,26S,28R,32S,38S,42Z)-20-cyclopentyl-28-ethoxy-32-[2-[3-methoxy-4-(trifluoromethyl)phenyl]ethyl]-N,N,2,14,18,21,36-heptamethyl-10-[(1S)-1-methylpropyl]-3,9,12,15,19,22,25,31,34,37,45-undecaoxo-13-propyl-38-[[4-(trifluoromethyl)phenyl]methyl]spiro[24-oxa-2,8,11,14,18,21,30,33,36,39-decazatetracyclo[37.5.1.0^4,8.0^26,30]pentatetracont-42-ene-23,1'-cyclobutane]-17-carboxamide] | 20.4 | 11.9 | 18.6 | 0.57 | A (a compound having 10 or more and less than 20 is denoted as A) | 42.5 | 13.9 | 22.6 | 2.8 | A (a compound having 10 or more and less than 20 is denoted as A) | –
4 | CCO[C@@H]1C[C@H]2C(=O)NC3(CC(C)(C)C3)C(=O)N(C)[C@@H](CC(C)(C)C)C(=O)N(C)[C@H](C(=O)N(C)C)CC(=O)N(C)[C@@H](COC)C(=O)N[C@@H]([C@@H](C)CC)C(=O)N(C3CC3)CC(=O)N(C)[C@H]3C/C=C\CCN(C3=O)[C@@H](Cc3ccc(C(F)(F)F)cc3)C(=O)N(C)CC(=O)N[C@@H](CCc3ccc(Cl)c(Cl)c3)C(=O)N2C1 [PP2750, (2S,8S,12R,14S,20S,23S,27S,30S,36S,38Z)-32-cyclopropyl-8-[2-(3,4-dichlorophenyl)ethyl]-20-(2,2-dimethylpropyl)-12-ethoxy-27-(methoxymethyl)-N,N,3',3',4,19,22,26,35-nonamethyl-30-[(1S)-1-methylpropyl]-3,6,9,15,18,21,25,28,31,34,42-undecaoxo-2-[[4-(trifluoromethyl)phenyl]methyl]spiro[1,4,7,10,16,19,22,26,29,32,35-undecazatricyclo[34.5.1.0^10,14]dotetracont-38-ene-17,1'-cyclobutane]-23-carboxamide] | 24.2 | 19 | 56 | – | AA (a compound having 20 or more is denoted as AA) | 31.8 | 20.6 | 23.6 | 1.9 | A (a compound having 10 or more and less than 20 is denoted as A) | 0.54
5 | CCC(CC)[C@H]1C(=O)N(C)[C@H](C(=O)N(C)C)CC(=O)N(C)[C@@H](COC)C(=O)N[C@@H]([C@@H](C)CC)C(=O)N(C)CC(=O)N(C)[C@H]2C/C=C\CCN(C2=O)[C@@H](Cc2ccc(C)cc2)C(=O)N(C)CC(=O)N[C@@H](CCc2ccc(C(F)(F)F)c(Cl)c2)C(=O)N2CC3(CC3)C[C@H]2C(=O)NC2(CC(C)(C)C2)C(=O)N1C [PP2967] | 35.6 | 17 | 61.3 | – | AA (a compound having 20 or more is denoted as AA) | 57.1 | 21.5 | 27.2 | 5.2 | A (a compound having 10 or more and less than 20 is denoted as A) | 0.41
6 | C#CC[C@H]1C(=O)N[C@@H]([C@@H](C)CC)C(=O)N(C)CC(=O)N(C)[C@H]2C/C=C\CCN(C2=O)[C@@H](Cc2ccc(C)cc2)C(=O)N(C)CC(=O)N[C@@H](CCc2cc(F)c(C(F)(F)F)c(F)c2)C(=O)N2C[C@H](OCC)C[C@H]2C(=O)N(C)C2(CCC2)C(=O)N(C)[C@@H](C2CCCC2)C(=O)N(C)[C@H](C(=O)N(C)C)CC(=O)N1C [PP3238, (2S,8S,12R,14S,20S,23S,27S,30S,36S,38Z)-20-cyclopentyl-8-[2-[3,5-difluoro-4-(trifluoromethyl)phenyl]ethyl]-12-ethoxy-N,N,4,16,19,22,26,32,35-nonamethyl-30-[(1S)-1-methylpropyl]-3,6,9,15,18,21,25,28,31,34,42-undecaoxo-27-prop-2-ynyl-2-(p-tolylmethyl)spiro[1,4,7,10,16,19,22,26,29,32,35-undecazatricyclo[34.5.1.0^10,14]dotetracont-38-ene-17,1'-cyclobutane]-23-carboxamide] | 2.1 | 1.9 | 4.2 | 0.022 | A (a compound having 10 or more and less than 20 is denoted as A) | 2.1 | 1.5 | 1.5 | 0.6 | A (a compound having 10 or more and less than 20 is denoted as A) | –
